The record followed here is ChEMBL document CHEMBL1201862, “PubChem BioAssay data set” (2004).

What all share (test): growth of human tumour cells (NCI), 48 h
Assay [1] relates to A498.
Assay [2] deals with BT-549.
Assay [3] relates to DU-145.
Assay [4] relates to HOP-92.
The subject of assay [5] is HT-29.
The test system of assay [6] is Hs-578T.
Assay [7] has as its system IGROV-1.
In assay [8] the test system is K562.
Assay [9] concerns MDA-MB-435.
The test system of assay [10] is MDA-N.
Assay [11] concerns MOLT-4.
The subject of assay [12] is NCI-H522.
The subject of assay [13] is OVCAR-3.
For assay [14], the system named is RPMI-8226.
Assay [15] concerns SF-268.
The test system of assay [16] is SK-MEL-5.
Assay [17] deals with SW-620.
The subject of assay [18] is U-251.
Assay [19] has as its system ACHN.

Molecules are shown by their SMILES.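 48-hour exposure; five concentrations; linearly interpolated endpoints. Abbreviation: GI50, concentration required for 50% inhibition of growth.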 The source made the active and inactive calls. No stated cut-off is given here; in the data, active = GI50 up to about 1.1 µM and inactive = higher.

On to `Cc1nnc2cc(C(=O)O)c3ccccc3n2c1=O`, for which the GI50 in assay [1], in [2], in assay [3], in [4], in assay [5] and in [6] was > 10 µM (inactive) throughout. The GI50 in assay [7], in assay [8], in assay [9], in [10], in assay [11] and in [12] was > 10 µM (inactive) each time. Also, the GI50 in [13], in assay [14], in [15], in assay [16], in [17] and in assay [18] was > 10 µM (inactive) in each case.

For the molecule `Cc1ccc([S+]([O-])(=Nc2ccccc2)C(C(C)C)C(C)(C)Cl)cc1` (stereo not given), the GI50 in assay [1] is 18.5 µM (inactive); in [19], 31.6 µM (inactive); in assay [2] it was 18.1 µM (inactive); in [3], > 50 µM (inactive); in [4] it was 30.1 µM (inactive); in [5], 17.1 µM (inactive). Besides, the GI50 in [6] is 29.6 µM (inactive); in [7], > 50 µM (inactive); in assay [8] it was 16.7 µM (inactive); in assay [9], 10.7 µM (inactive); in [10], 16 µM (inactive); in assay [11], 10.5 µM (inactive). The GI50 in assay [12] is 16 µM (inactive); in [13], 29.6 µM (inactive); in assay [14], 14 µM (inactive); in assay [15] it was 44.4 µM (inactive); in [16] it was 4.06 µM (inactive); in assay [17] it was 20.9 µM (inactive). Besides, the GI50 in assay [18] was 16.7 µM (inactive).

Consider `CC[N+]1(C)CCC(O)(/C=C/c2ccc(OC)cc2)C(C(=O)/C=C/c2ccc(OC)cc2)C1` (stereo not given), for which the GI50 in [1] was 16.7 µM (inactive); in [19] it was 8.36 µM (inactive); in [2], 20.1 µM (inactive); in [3], 14.2 µM (inactive); in assay [4] it was 15.5 µM (inactive); in assay [5], 13.2 µM (inactive). Further, the GI50 is 11.7 µM (inactive) in assay [6]; 21.8 µM (inactive) in [7]; 2.06 µM (inactive) in assay [8]; 12.5 µM (inactive) in assay [9]; 12.3 µM (inactive) in assay [10]; 1.94 µM (inactive) in assay [11]. Further, the GI50 in assay [12] was 2.26 µM (inactive); in assay [13], 19.7 µM (inactive); in assay [14], 0.252 µM (active); in [15], 10.6 µM (inactive); in [16] it was 14.7 µM (inactive); in assay [17] it was 2.7 µM (inactive). The GI50 in assay [18] is 15.6 µM (inactive).

With `O=[N+]([O-])c1cccc2nc3ccccc3c(NCCC[N+]3([O-])CCCCC3)c12`, the GI50 in [1] was 0.804 µM (active); in assay [19] it was 5.37 µM (inactive); in assay [2], 0.501 µM (active); in assay [3], 0.35 µM (active); in assay [4], 0.275 µM (active); in [5], 0.301 µM (active). Also, the GI50 in assay [6] was 0.82 µM (active); in [7] it was 0.394 µM (active); in assay [8] it was 1.1 µM (active); in assay [9] it was 0.18 µM (active); in assay [10] it was 0.176 µM (active); in assay [11] it was 0.198 µM (active). The GI50 in assay [12] is 0.134 µM (active); in assay [13] it was 0.281 µM (active); in assay [14] it was 0.308 µM (active); in assay [15], 0.323 µM (active); in assay [16], 0.36 µM (active); in [17], 0.468 µM (active). The GI50 in assay [18] was 0.289 µM (active).

In the case of `COC(=O)CN(CC(O)C(NC(C)=O)C(O)C=O)C(=O)OCc1ccccc1` (stereo not given), the GI50 in assay [1], in assay [19], in [2], in assay [3], in assay [4] and in [5] was > 100 µM (inactive) each time. Further, the GI50 in [6], in [7], in [8], in assay [9], in assay [10] and in [11] was > 100 µM (inactive) each time. The GI50 in assay [12], in assay [13], in assay [14], in [15], in [16] and in assay [17] was > 100 µM (inactive) in each case. Moreover, the GI50 in assay [18] is > 100 µM (inactive).

With `CC(=O)Oc1ccn2nc(C)c(Br)c2c1`, the GI50 in assay [1] is > 100 µM (inactive); in assay [19], > 100 µM (inactive); in assay [2], > 100 µM (inactive); in assay [3], > 100 µM (inactive); in assay [4] it was > 87.1 µM (inactive); in assay [5], 53.3 µM (inactive). Further, the GI50 in assay [6] is > 100 µM (inactive); in [7] it was > 100 µM (inactive); in [8] it was 39.2 µM (inactive); in assay [9], 31.8 µM (inactive); in [10] it was 49.3 µM (inactive); in assay [11] it was 43 µM (inactive). The GI50 is 28.8 µM (inactive) in assay [12]; 39.3 µM (inactive) in assay [13]; > 53.8 µM (inactive) in assay [15]; 42.6 µM (inactive) in assay [16]; > 100 µM (inactive) in [17]; 97.7 µM (inactive) in [18].

Consider `N#Cc1cc2c(n(C3OC(CO)C(O)C(O)C3O)c1=S)CCCCCC2` (stereo not given), for which the GI50 in assay [1], in assay [19], in assay [2], in assay [3], in [4] and in assay [5] was > 100 µM (inactive) throughout. Besides, the GI50 in [6], in assay [7], in assay [8], in [9], in assay [10] and in [11] was > 100 µM (inactive) in each case. The GI50 in [12], in [13], in [14], in [15], in assay [16] and in assay [17] was > 100 µM (inactive) in each case. Moreover, the GI50 in assay [18] was > 100 µM (inactive).

For `OC1(c2ccccc2)CSc2ncnn21` (stereo not given), the GI50 in [1] is > 100 µM (inactive); in assay [19], > 100 µM (inactive); in assay [2], > 100 µM (inactive); in assay [3] it was 41.1 µM (inactive); in [4], > 100 µM (inactive); in [5], > 100 µM (inactive). For the same molecule, the GI50 in assay [6], in assay [7], in assay [8], in assay [9], in [10] and in assay [11] was > 100 µM (inactive) throughout. For the same molecule, the GI50 in assay [12], in assay [13], in assay [15], in assay [16], in assay [17] and in assay [18] was > 100 µM (inactive) each time.

Turning to `C(=C/c1nnnn1-c1ccccc1)/Nc1ccccc1`, the GI50 in assay [1] was > 100 µM (inactive); in [19], 28.1 µM (inactive); in assay [2], 17.4 µM (inactive); in assay [3], 24.7 µM (inactive); in [4], 24.4 µM (inactive); in assay [5], 28.2 µM (inactive). The GI50 in assay [6] is 31.8 µM (inactive); in [7], 35.2 µM (inactive); in assay [8], 20.7 µM (inactive); in assay [9], 26.1 µM (inactive); in assay [10] it was 22 µM (inactive); in [11] it was 21.7 µM (inactive). In addition, the GI50 in assay [12] was 20.8 µM (inactive); in [13], 27.2 µM (inactive); in assay [14], 31 µM (inactive); in [15], 31.7 µM (inactive); in [16] it was 14.5 µM (inactive); in [17], 37.3 µM (inactive). Also, the GI50 in [18] was 27.9 µM (inactive).

In the case of `O=C1CCCCC/C1=C\c1ccccc1`, the GI50 in assay [1], in assay [19], in assay [2], in assay [3], in [4] and in assay [5] was > 100 µM (inactive) in each case. In addition, the GI50 is > 100 µM (inactive) in [6]; > 100 µM (inactive) in assay [7]; > 100 µM (inactive) in [8]; 76 µM (inactive) in assay [9]; > 100 µM (inactive) in assay [10]; 80.9 µM (inactive) in [11]. Further, the GI50 was > 100 µM (inactive) in assay [12]; > 100 µM (inactive) in assay [13]; 56.4 µM (inactive) in assay [14]; > 100 µM (inactive) in [15]; 45 µM (inactive) in assay [16]; > 100 µM (inactive) in [17]. Besides, the GI50 in assay [18] was > 100 µM (inactive).

Take `COC1=C2C=[N+](C)C3C(=C2C=CC1OC)Cc1cc2c(cc13)OCO2` (stereo not given): the GI50 in assay [1] is 43.5 µM (inactive); in assay [2], 12.7 µM (inactive); in assay [3], 14.5 µM (inactive); in assay [4], 22.7 µM (inactive); in [5], 13.5 µM (inactive); in [6], 13.7 µM (inactive). In addition, the GI50 was > 10 µM (inactive) in [7]; 6.93 µM (inactive) in assay [8]; 15.4 µM (inactive) in assay [9]; 11.4 µM (inactive) in assay [10]; 3.77 µM (inactive) in assay [11]; 4.32 µM (inactive) in [12]. The GI50 is 3.75 µM (inactive) in assay [13]; 2.53 µM (inactive) in assay [14]; 3.8 µM (inactive) in assay [15]; 11.2 µM (inactive) in [16]; 26.2 µM (inactive) in [17]; 9.42 µM (inactive) in [18].
